{"source": "patent US20250243176A1", "about": "“(S)-1-(1-ACRYLOYLPIPERIDIN-3-YL)-2-FLUORO-5,6,7,8,9,10-HEXAHYDROCYCLO HEPTA[B]INDOLE-4-CARBOXAMIDE, AND RELATED CRYSTALLINE FORMS, COMPOSITIONS, AND METHODS THEREOF” (GB005, Inc., priority 2021, published 2025)", "key": {"[1]": {"assay": "Phase 1 food effect on pharmacokinetics", "format": "in vivo, human", "settings": "for Tmax / half-life / AUC(0-inf) / Cmax: human, plasma, oral; for AUC(0-inf) / Cmax: mean", "text": "Cohort 11 is a randomized, 2-treatment, 2-period, 2-sequence, single-dose level food effect evaluation. The formulation used in Cohort 11 is Formulation A. In Treatment Sequence FH, subjects receive Compound 1 in the fasted state on Day 1, and a second dose in the fed state (high-fat, high-calorie meal) on Day 8. In Treatment Sequence HF, subjects receive Compound 1 in the fed state (high-fat, high-calorie meal) on Day 1 and a second dose in the fasted state on Day 8. Days 2-7 are washout days.\nResults: Preliminary pharmacokinetic results evaluating the effect of food on Compound 1 PK are presented, including 12 subjects from Cohort 11, […] 15 mg under fasting conditions, or in a fed state (with a moderate-fat meal or with a high-fat high-calorie meal). Preliminary PK parameters are presented in Table 48 (all pharmacokinetic parameters of […] are reported as Mean (% coefficient of variation), except for Tmax and t/2, which are reported as Median (Min, Max)), and in FIG. 28."}, "[2]": {"assay": "Phase 1 single ascending dose plasma pharmacokinetics", "format": "in vivo, human", "settings": "for AUC(0-inf) / Cmax / half-life / Tmax: both sexes, human, plasma, fed; for AUC(0-inf) / Cmax: mean; for dose proportionality of exposure (AUCinf): single dose", "description": "The study investigates the administration of Compound 1 to healthy human subjects, to evaluate the safety, tolerability and PK of single and multiple-escalating doses. Additional objectives include assessing the effect of formulation on PK, the effect of food on PK, the effect of a CYP3A inhibitor on PK and the effect of Compound 1 on CYP3A activity. PK parameters including AUC, AUC, Cmax, and Tmax are determined. An additional exploratory objective evaluates pharmacodynamics, as the time-course of BTK inhibition. The study is conducted with up to 144 healthy male and female subjects, aged 18-55 years, with a body weight over 48 kg, BMI 18.5-30.0 kg/m^2, with no clinically significant abnormalities.\nPart A is a randomized, double-blind, placebo-controlled, single- and -multiple-dose study with staggered dose escalation, administered in the fed state (standard moderate-fat meal). Part A consists of […] (up to 7 single-ascending dose [SAD] cohorts [Cohorts 1-6 & 14], and up to 3 multiple ascending dose [MAD] cohorts [Cohorts 7-9]). Subjects are randomized in a 3:1 ratio per cohort to receive either: Compound 1 Formulation A (N=6 for Cohorts 1-4 and N=9 for Cohorts 5-9 & 14); or placebo (PBO; N=2 for Cohorts 1-4 and N=3 for Cohorts 5-9 & 14).\n• Cohorts 1-4: Day 1, all subjects receive a single dose of Formulation A Compound 1 or placebo. • Cohorts 5, 6 & 14: Day −1, all subjects receive placebo (establish baseline ECG assessments). Day 1, subjects receive a single oral dose of Compound 1 or placebo.\nSafety is assessed throughout the study and PK and PD are characterized using serial blood samples collected up to 48 hours post-dose for Compound 1 plasma concentrations, BTK target occupancy (TO) and target engagement (TE). Cerebrospinal fluid (CSF) samples are collected at 2 hours post-dose to characterize the relationship between Compound 1 plasma concentrations and CNS penetrance (CSF/Unbound plasma concentration). Compound 1 PK parameters (e.g., AUClast, AUCinf, Cmax, Tmax, t1/2) are estimated by standard noncompartmental methods.\nResults: Preliminary pharmacokinetic results from […] are presented, including […] (7 receiving 5 mg, 8 receiving 15 mg, 8 receiving 45 mg, 8 receiving 5 mg+10 mg placebo, 12 receiving 100 mg and 12 receiving 200 mg: randomized in a 3:1 ratio to receive Compound 1 or placebo) in a fed state (moderate-fat meal). […] Preliminary PK parameters are presented in Table 45 (all pharmacokinetic parameters of Table 45 are reported as Mean (% coefficient of variation), except for Tmax and t/2, which are reported as Median (Min, Max)), and in FIG. 25 presenting the mean (SD) plasma concentration-time profiles of Compound 1."}, "[3]": {"settings": "15 mg, Cohort 11, 15 mg single dose, Fasted"}, "[4]": {"settings": "15 mg, Cohort 11, 15 mg single dose, High-Fat"}, "[5]": {"settings": "15 mg, Cohorts 2 and 7, 15 mg single dose, Moderate-Fat"}, "[6]": {"settings": "oral, 5 mg, Cohort 1, 5 mg single dose"}, "[7]": {"settings": "oral, 5 mg, Cohort 4, 5 mg (+10 PBO) single dose"}, "[8]": {"settings": "oral, 15 mg, Cohort 2, 15 mg single dose"}, "[9]": {"settings": "oral, 45 mg, Cohort 3, 45 mg single dose"}, "[10]": {"settings": "oral, 100 mg, Cohort 5, 100 mg single dose"}, "[11]": {"settings": "oral, 200 mg, Cohort 6, 200 mg single dose"}}, "data": [{"smiles": "C=CC(=O)N1CCC[C@@H](c2c(F)cc(C(N)=O)c3[nH]c4c(c23)CCCCC4)C1", "note": "[Compound 1, (S)-1-(1-acryloylpiperidin-3-yl)-2-fluoro-5,6,7,8,9,10-hexahydrocyclohepta[b]indole-4-carboxamide]", "values": [{"measurement": "AUC0-inf, High-Fat/Fasted % GMR - paired", "setting": "[1]; 15 mg single dose", "value": 120.3, "unit": "%"}, {"measurement": "AUC0-inf, Moderate-Fat/Fasted % GMR - unpaired", "setting": "[1]; 15 mg single dose", "value": 107.9, "unit": "%"}, {"measurement": "Cmax, High-Fat/Fasted % GMR - paired", "setting": "[1]; 15 mg single dose", "value": 68.0, "unit": "%"}, {"measurement": "Cmax, Moderate-Fat/Fasted % GMR - unpaired", "setting": "[1]; 15 mg single dose", "value": 74.1, "unit": "%"}, {"measurement": "Tmax", "setting": "[1]; both sexes, 15 mg, single 15 mg dose, fasting, moderate-fat meal or high-fat high-calorie meal, read-out: mean plasma Tmax", "value": "1 to 2.5", "unit": "h"}, {"measurement": "half-life", "setting": "[1]; both sexes, 15 mg, single 15 mg dose, fasting, moderate-fat meal or high-fat high-calorie meal, read-out: terminal half-life (converted)", "value": "~3", "unit": "h"}, {"measurement": "AUC(0-inf)", "setting": "[1]; [3]", "value": 312, "unit": "ng·h/mL"}, {"measurement": "Cmax", "setting": "[1]; [3]", "value": 137, "unit": "ng/mL"}, {"measurement": "half-life", "setting": "[1]; 15 mg, Cohort 11, 15 mg single dose, Fasted, median, read-out: T1/2 (converted)", "value": 2.89, "unit": "h"}, {"measurement": "Tmax", "setting": "[1]; 15 mg, Cohort 11, 15 mg single dose, Fasted, median, read-out: Tmax", "value": 1, "unit": "h"}, {"measurement": "AUC(0-inf)", "setting": "[1]; [4]", "value": 356, "unit": "ng·h/mL"}, {"measurement": "Cmax", "setting": "[1]; [4]", "value": 85.5, "unit": "ng/mL"}, {"measurement": "half-life", "setting": "[1]; 15 mg, Cohort 11, 15 mg single dose, High-Fat, median, read-out: T1/2 (converted)", "value": 2.99, "unit": "h"}, {"measurement": "Tmax", "setting": "[1]; 15 mg, Cohort 11, 15 mg single dose, High-Fat, median, read-out: Tmax", "value": 2.5, "unit": "h"}, {"measurement": "AUC(0-inf)", "setting": "[1]; [5]", "value": 322, "unit": "ng·h/mL"}, {"measurement": "Cmax", "setting": "[1]; [5]", "value": 101, "unit": "ng/mL"}, {"measurement": "half-life", "setting": "[1]; 15 mg, Cohorts 2 and 7, 15 mg single dose, Moderate-Fat, median, read-out: T1/2 (converted)", "value": 2.9, "unit": "h"}, {"measurement": "Tmax", "setting": "[1]; 15 mg, Cohorts 2 and 7, 15 mg single dose, Moderate-Fat, median, read-out: Tmax", "value": 1.5, "unit": "h"}, {"measurement": "effect of food on PK", "setting": "[1]; moderate fat, or high-fat high calorie meal, 15 mg", "value": "no clinically significant effect"}, {"measurement": "AUC(0-inf)", "setting": "[2]; [6]", "value": 62.1, "unit": "ng·h/mL"}, {"measurement": "Cmax", "setting": "[2]; [6]", "value": 22.5, "unit": "ng/mL"}, {"measurement": "half-life", "setting": "[2]; oral, 5 mg, Cohort 1, 5 mg single dose, median, read-out: T1/2 (converted)", "value": 2.77, "unit": "h"}, {"measurement": "Tmax", "setting": "[2]; oral, 5 mg, Cohort 1, 5 mg single dose, median, read-out: Tmax", "value": 2, "unit": "h"}, {"measurement": "AUC(0-inf)", "setting": "[2]; [7]", "value": 121, "unit": "ng·h/mL"}, {"measurement": "Cmax", "setting": "[2]; [7]", "value": 36, "unit": "ng/mL"}, {"measurement": "half-life", "setting": "[2]; oral, 5 mg, Cohort 4, 5 mg (+10 PBO) single dose, median, read-out: T1/2 (converted)", "value": 3.33, "unit": "h"}, {"measurement": "Tmax", "setting": "[2]; oral, 5 mg, Cohort 4, 5 mg (+10 PBO) single dose, median, read-out: Tmax", "value": 1.75, "unit": "h"}, {"measurement": "AUC(0-inf)", "setting": "[2]; [8]", "value": 339, "unit": "ng·h/mL"}, {"measurement": "Cmax", "setting": "[2]; [8]", "value": 124, "unit": "ng/mL"}, {"measurement": "half-life", "setting": "[2]; oral, 15 mg, Cohort 2, 15 mg single dose, median, read-out: T1/2 (converted)", "value": 3.6, "unit": "h"}, {"measurement": "Tmax", "setting": "[2]; oral, 15 mg, Cohort 2, 15 mg single dose, median, read-out: Tmax", "value": 1, "unit": "h"}, {"measurement": "AUC(0-inf)", "setting": "[2]; [9]", "value": 859, "unit": "ng·h/mL"}, {"measurement": "Cmax", "setting": "[2]; [9]", "value": 283, "unit": "ng/mL"}, {"measurement": "half-life", "setting": "[2]; oral, 45 mg, Cohort 3, 45 mg single dose, median, read-out: T1/2 (converted)", "value": 3.4, "unit": "h"}, {"measurement": "Tmax", "setting": "[2]; oral, 45 mg, Cohort 3, 45 mg single dose, median, read-out: Tmax", "value": 1.5, "unit": "h"}, {"measurement": "AUC(0-inf)", "setting": "[2]; [10]", "value": 2290, "unit": "ng·h/mL"}, {"measurement": "Cmax", "setting": "[2]; [10]", "value": 555, "unit": "ng/mL"}, {"measurement": "half-life", "setting": "[2]; oral, 100 mg, Cohort 5, 100 mg single dose, median, read-out: T1/2 (converted)", "value": 4.29, "unit": "h"}, {"measurement": "Tmax", "setting": "[2]; oral, 100 mg, Cohort 5, 100 mg single dose, median, read-out: Tmax", "value": 1.5, "unit": "h"}, {"measurement": "AUC(0-inf)", "setting": "[2]; [11]", "value": 4480, "unit": "ng·h/mL"}, {"measurement": "Cmax", "setting": "[2]; [11]", "value": 814, "unit": "ng/mL"}, {"measurement": "half-life", "setting": "[2]; oral, 200 mg, Cohort 6, 200 mg single dose, median, read-out: T1/2 (converted)", "value": 4.5, "unit": "h"}, {"measurement": "Tmax", "setting": "[2]; oral, 200 mg, Cohort 6, 200 mg single dose, median, read-out: Tmax", "value": 3, "unit": "h"}, {"measurement": "Tmax", "setting": "[2]; po, healthy subjects, single oral dose, SAD cohorts, read-out: mean plasma Tmax", "value": "1 to 3", "unit": "h"}, {"measurement": "half-life", "setting": "[2]; po, healthy subjects, single oral dose, SAD cohorts, read-out: terminal half-life", "value": "3 to 4", "unit": "h"}, {"measurement": "dose proportionality of exposure (AUCinf)", "setting": "[2]; from 5 to 15 mg", "value": "greater than dose-proportional"}, {"measurement": "dose proportionality of exposure (AUCinf)", "setting": "[2]; from 15 to 200 mg", "value": "near dose-proportional"}]}]}
